Data published in patent US20190367516A1 (Bayer Pharma Aktiengesellschaft, priority 2015, published 2019).
pEC50: −log10 of the molar value. Like-named read-outs stand apart in the source and are kept apart here.

Target: T1, human M2 receptor (Homo sapiens, UniProt P08172)
T1 sequence (P08172 1-466): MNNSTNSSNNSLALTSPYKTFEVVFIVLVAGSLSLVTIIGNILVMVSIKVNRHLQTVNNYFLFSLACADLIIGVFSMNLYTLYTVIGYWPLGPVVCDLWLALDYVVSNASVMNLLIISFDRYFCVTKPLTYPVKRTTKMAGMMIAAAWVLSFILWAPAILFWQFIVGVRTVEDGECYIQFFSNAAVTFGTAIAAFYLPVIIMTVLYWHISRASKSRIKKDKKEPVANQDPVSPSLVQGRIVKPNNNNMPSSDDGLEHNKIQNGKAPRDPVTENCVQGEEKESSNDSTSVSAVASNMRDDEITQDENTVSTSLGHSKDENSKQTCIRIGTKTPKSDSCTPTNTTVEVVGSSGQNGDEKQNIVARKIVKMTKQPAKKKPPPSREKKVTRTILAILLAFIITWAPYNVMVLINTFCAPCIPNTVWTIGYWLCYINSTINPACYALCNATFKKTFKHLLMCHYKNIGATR
Conditions: for Efficiency: boosting of the acetylcholine effect at EC20 acetylcholine concentration; for Emax: read-out: Efficiency, boosting of the acetylcholine effect at EC20 acetylcholine concentration

[1] = Receptor activity EC50, allosteric potency at EC20 acetylcholine, M2-GIRK1/4 reporter cells, in some cases mean of two or more determinations
[2] = Receptor activity EC50, M2-GIRK1/4 activation test, acetylcholine at EC20, allosteric potency, in some cases mean values from two or more determinations

Work on `O=C(NC(CC(F)(F)F)C(F)(F)F)c1cn(-c2c(F)cc(F)cc2F)c2nc(N3CCNC3=O)ccc2c1=O` (racemic) [Example 588, N-[1,1,1,4,4,4-Hexafluorobutan-2-yl]-4-oxo-7-(2-oxoimidazolidin-1-yl)-1-(2,4,6-trifluorophenyl)-1,4-dihydro-1,8-naphthyridine-3-carboxamide] yielded a pEC50 [1] of 8.05 and an Efficiency (M2-GIRK1/4 reporter cells) of 100.0%.
`O=C(Nc1c(Cl)cccc1Cl)c1cn(-c2ccc(F)cc2F)c2nc(N3CC4CC4(O)C3)ccc2c1=O` (racemic) [Example 597, N-(2,6-Dichlorophenyl)-1-(2,4-difluorophenyl)-7-[1-hydroxy-3-azabicyclo[3.1.0]hex-3-yl]-4-oxo-1,4-dihydro-1,8-naphthyridine-3-carboxamide] gave a pEC50 [1] of 7.68 and an Emax (M2-GIRK1/4 reporter cells) of 95.5%.
`O=C(N[C@@H](C1CC1)C(F)(F)F)c1cn(-c2c(F)cc(F)cc2F)c2nc(N3CC(O)C4(CC4)C3)ccc2c1=O` (mixture of isomers) [Example 600, N-[(1S)-1-Cyclopropyl-2,2,2-trifluoroethyl]-7-[7-hydroxy-5-azaspiro[2.4]hept-5-yl]-4-oxo-1-(2,4,6-trifluorophenyl)-1,4-dihydro-1,8-naphthyridine-3-carboxamide] showed a pEC50 [1] of 7.55 and an Emax (M2-GIRK1/4 reporter cells) of 96.9%.
Compound `O=C(NC(CC(F)(F)F)C(F)(F)F)c1cn(-c2c(F)cc(F)cc2F)c2nc(N3C[C@@H](O)CC3=O)ccc2c1=O` (mixture of isomers) [Example 606, N-[1,1,1,4,4,4-Hexafluorobutan-2-yl]-7-[(4S)-4-hydroxy-2-oxopyrrolidin-1-yl]-4-oxo-1-(2,4,6-trifluorophenyl)-1,4-dihydro-1,8-naphthyridine-3-carboxamide] has a pEC50 [1] of 7.57 and an Emax (M2-GIRK1/4 reporter cells) of 98%.
Compound `CCC(COC(F)(F)F)NC(=O)c1cn(-c2c(F)cc(F)cc2F)c2nc(N3CCNC3=O)ccc2c1=O` (racemic) [Example 609, 4-Oxo-7-(2-oxoimidazolidin-1-yl)-N-[1-(trifluoromethoxy)butan-2-yl]-1-(2,4,6-trifluorophenyl)-1,4-dihydro-1,8-naphthyridine-3-carboxamide] has a pEC50 [1] of 7.55 and an Emax (M2-GIRK1/4 reporter cells) of 99%.
In the case of `CCC(COC(F)(F)F)NC(=O)c1cn(-c2c(F)cc(F)cc2F)c2nc(N3CCNC3=O)ccc2c1=O` (racemic) [Example 610, 4-Oxo-7-(2-oxoimidazolidin-1-yl)-N-[1-(trifluoromethoxy)butan-2-yl]-1-(2,4,6-trifluorophenyl)-1,4-dihydro-1,8-naphthyridine-3-carboxamide], the pEC50 [1] was 7.96 and the Efficiency (M2-GIRK1/4 reporter cells) was 100.0%.
`CCC(COC(F)(F)F)NC(=O)c1cn(-c2c(F)cc(F)cc2F)c2nc(N3CCNC3=O)ccc2c1=O` (racemic) [Example 611, 4-Oxo-7-(2-oxoimidazolidin-1-yl)-N-[1-(trifluoromethoxy)butan-2-yl]-1-(2,4,6-trifluorophenyl)-1,4-dihydro-1,8-naphthyridine-3-carboxamide] gave a pEC50 [1] of 7.77 and an Efficiency (M2-GIRK1/4 reporter cells) of 90.0%.
For `O=C(N[C@@H](C1CC1)C(F)(F)F)c1cn(-c2c(F)cc(F)cc2F)c2nc(N3CCC(O)C(O)C3)ccc2c1=O` (mixture of isomers) [Example 615, N-[(1 S)-1-Cyclopropyl-2,2,2-trifluoroethyl]-7-[trans-3,4-dihydroxypiperidin-1-yl]-4-oxo-1-(2,4,6-trifluorophenyl)-1,4-dihydro-1,8-naphthyridine-3-carboxamide], the pEC50 [1] was 7.28 and the Emax (M2-GIRK1/4 reporter cells) was 99.3%.
With `CC[C@H](NC(=O)c1cn(-c2c(F)cc(F)cc2F)c2nc(N3CC(O)C4(CC4)C3)ccc2c1=O)C(F)(F)F` (mixture of isomers) [Example 619, 7-[7-Hydroxy-5-azaspiro[2.4]hept-5-yl]-4-oxo-N-[(2S)-1,1,1-trifluorobutan-2-yl]-1-(2,4,6-trifluorophenyl)-1,4-dihydro-1,8-naphthyridine-3-carboxamide] the pEC50 [1] was 7.40 and the Emax (M2-GIRK1/4 reporter cells) was 88.6%.
With `CC(NC(=O)c1cn(-c2ccc(F)cc2F)c2nc(N3C[C@@H](O)CC3=O)ccc2c1=O)C(F)(F)C(F)(F)F` (mixture of isomers) [Example 622, 1-(2,4-Difluorophenyl)-7-[(4S)-4-hydroxy-2-oxopyrrolidin-1-yl]-4-oxo-N-[3,3,4,4,4-pentafluorobutan-2-yl]-1,4-dihydro-1,8-naphthyridine-3-carboxamide] the pEC50 [1] was 7.37 and the Emax (M2-GIRK1/4 reporter cells) was 93%.
`O=C(NC12CC(C1)C2)c1cn(-c2c(F)cc(F)cc2F)c2nc(N3CC(O)C4(CC4)C3)ccc2c1=O` (racemic) [Example 626, N-(Bicyclo[1.1.1]pent-1-yl)-7-[7-hydroxy-5-azaspiro[2.4]hept-5-yl]-4-oxo-1-(2,4,6-trifluorophenyl)-1,4-dihydro-1,8-naphthyridine-3-carboxamide] gave a pEC50 [1] of 7.36 and an Emax (M2-GIRK1/4 reporter cells) of 93.5%.
With `O=C(NC12CC(C1)C2)c1cn(-c2c(F)cc(F)cc2F)c2nc(N3CC(O)C4(CC4)C3)ccc2c1=O` (racemic) [Example 628, N-(Bicyclo[1.1.1]pent-1-yl)-7-[7-hydroxy-5-azaspiro[2.4]hept-5-yl]-4-oxo-1-(2,4,6-trifluorophenyl)-1,4-dihydro-1,8-naphthyridine-3-carboxamide] the Efficiency (M2-GIRK1/4 reporter cells) was 89.5%.
`O=C(N[C@@H](C1CC1)C(F)(F)F)c1cn(-c2c(F)cc(F)cc2F)c2nc(N3CC(CO)OC3=O)ccc2c1=O` (mixture of isomers) [Example 659, N-[(1S)-1-Cyclopropyl-2,2,2-trifluoroethyl]-7-[5-(hydroxymethyl)-2-oxo-1,3-oxazolidin-3-yl]-4-oxo-1-(2,4,6-trifluorophenyl)-1,4-dihydro-1,8-naphthyridine-3-carboxamide] gave a pEC50 [1] of 7.09 and an Emax (M2-GIRK1/4 reporter cells) of 98%.
`CC[C@@H](NC(=O)c1cn(-c2ccc(F)cc2F)c2nc(N3CCC(C)(O)C3=O)ccc2c1=O)C(F)(F)F` (single isomer, unassigned) [Example 195] was tested, and the pEC50 [2] was 6.46.
Work on `CC[C@@H](NC(=O)c1cn(-c2ccc(F)cc2F)c2nc(N3CCC(C)(O)C3=O)ccc2c1=O)C(F)(F)F` (single isomer, unassigned) [Example 196] yielded a pEC50 [2] of 6.86.
`O=C(N[C@H](c1ccccc1Cl)C(F)(F)F)c1cn(-c2ccc(F)cc2F)c2nc(N3CCCC(O)C3=O)ccc2c1=O` (single isomer, unassigned) [Example 209] was tested, and the pEC50 [2] was 6.79.
Compound `O=C(N[C@H](c1ccccc1Cl)C(F)(F)F)c1cn(-c2ccc(F)cc2F)c2nc(N3CCCC(O)C3=O)ccc2c1=O` (single isomer, unassigned) [Example 210] has a pEC50 [2] of 6.55.
For `CC(NC(=O)c1cn(-c2ccc(F)cc2F)c2nc(N3C[C@@H](O)CC3=O)ccc2c1=O)c1c(F)cccc1F` (single isomer, unassigned) [Example 215], the pEC50 [2] was 6.75.
For `CC[C@@H](NC(=O)c1cn(-c2ccc(F)cc2F)c2nc(N3CC4CNC(=O)C4C3)ccc2c1=O)C(F)(F)F` (single isomer, unassigned) [Example 222], the pEC50 [2] was 6.70.
For `O=C(NC(c1c(F)cccc1F)C(F)(F)F)c1cn(-c2ccc(F)cc2F)c2nc(N3CCCC(O)C3=O)ccc2c1=O` (single isomer, unassigned) [Example 248, 1-(2,4-Difluorophenyl)-N-[1-(2,6-difluorophenyl)-2,2,2-trifluoroethyl]-7-[3-hydroxy-2-oxopiperidin-1-yl]-4-oxo-1,4-dihydro-1,8-naphthyridine-3-carboxamide], the pEC50 [2] was 6.48.
Compound `O=C(NC(c1c(F)cccc1F)C(F)(F)F)c1cn(-c2ccc(F)cc2F)c2nc(N3CCCC(O)C3=O)ccc2c1=O` (single isomer, unassigned) [Example 249, 1-(2,4-Difluorophenyl)-N-[1-(2,6-difluorophenyl)-2,2,2-trifluoroethyl]-7-[3-hydroxy-2-oxopiperidin-1-yl]-4-oxo-1,4-dihydro-1,8-naphthyridine-3-carboxamide] has a pEC50 [2] of 6.30.
Work on `O=C(NC(c1c(F)cccc1F)C(F)(F)F)c1cn(-c2ccc(F)cc2F)c2nc(N3CCCC(O)C3=O)ccc2c1=O` (single isomer, unassigned) [Example 251, 1-(2,4-Difluorophenyl)-N-[1-(2,6-difluorophenyl)-2,2,2-trifluoroethyl]-7-[3-hydroxy-2-oxopiperidin-1-yl]-4-oxo-1,4-dihydro-1,8-naphthyridine-3-carboxamide] yielded a pEC50 [2] of 6.79.
With `O=C(NC(c1c(F)cccc1F)C(F)(F)F)c1cn(-c2ccc(F)cc2F)c2nc(N3CCC(O)CC3=O)ccc2c1=O` (single isomer, unassigned) [Example 253, 1-(2,4-Difluorophenyl)-N-[1-(2,6-difluorophenyl)-2,2,2-trifluoroethyl]-7-[4-hydroxy-2-oxopiperidin-1-yl]-4-oxo-1,4-dihydro-1,8-naphthyridine-3-carboxamide] the pEC50 [2] was 6.32.
`O=C(NC(c1c(F)cccc1F)C(F)(F)F)c1cn(-c2ccc(F)cc2F)c2nc(N3CCC(O)CC3=O)ccc2c1=O` (single isomer, unassigned) [Example 254, 1-(2,4-Difluorophenyl)-N-[1-(2,6-difluorophenyl)-2,2,2-trifluoroethyl]-7-[4-hydroxy-2-oxopiperidin-1-yl]-4-oxo-1,4-dihydro-1,8-naphthyridine-3-carboxamide] was tested, and the pEC50 [2] was 6.47.
